In ChEMBL document CHEMBL5500383, “Recent advances and future directions on small molecule VEGFR inhibitors in oncological conditions” (Eur J Med Chem, 2024):
In brackets after ≈: the same amount, converted by molar mass.

Experiments:
[1] = target: Serine/threonine-protein kinase B-raf (Homo sapiens, UniProt P15056); test: Inhibition of wild type BRAF (unknown origin)
[2] = target: T1, Vascular endothelial growth factor receptor 2 (Homo sapiens, UniProt P35968); test: Inhibition of VEGFR2 (unknown origin)
T1 sequence (P35968 whole entry): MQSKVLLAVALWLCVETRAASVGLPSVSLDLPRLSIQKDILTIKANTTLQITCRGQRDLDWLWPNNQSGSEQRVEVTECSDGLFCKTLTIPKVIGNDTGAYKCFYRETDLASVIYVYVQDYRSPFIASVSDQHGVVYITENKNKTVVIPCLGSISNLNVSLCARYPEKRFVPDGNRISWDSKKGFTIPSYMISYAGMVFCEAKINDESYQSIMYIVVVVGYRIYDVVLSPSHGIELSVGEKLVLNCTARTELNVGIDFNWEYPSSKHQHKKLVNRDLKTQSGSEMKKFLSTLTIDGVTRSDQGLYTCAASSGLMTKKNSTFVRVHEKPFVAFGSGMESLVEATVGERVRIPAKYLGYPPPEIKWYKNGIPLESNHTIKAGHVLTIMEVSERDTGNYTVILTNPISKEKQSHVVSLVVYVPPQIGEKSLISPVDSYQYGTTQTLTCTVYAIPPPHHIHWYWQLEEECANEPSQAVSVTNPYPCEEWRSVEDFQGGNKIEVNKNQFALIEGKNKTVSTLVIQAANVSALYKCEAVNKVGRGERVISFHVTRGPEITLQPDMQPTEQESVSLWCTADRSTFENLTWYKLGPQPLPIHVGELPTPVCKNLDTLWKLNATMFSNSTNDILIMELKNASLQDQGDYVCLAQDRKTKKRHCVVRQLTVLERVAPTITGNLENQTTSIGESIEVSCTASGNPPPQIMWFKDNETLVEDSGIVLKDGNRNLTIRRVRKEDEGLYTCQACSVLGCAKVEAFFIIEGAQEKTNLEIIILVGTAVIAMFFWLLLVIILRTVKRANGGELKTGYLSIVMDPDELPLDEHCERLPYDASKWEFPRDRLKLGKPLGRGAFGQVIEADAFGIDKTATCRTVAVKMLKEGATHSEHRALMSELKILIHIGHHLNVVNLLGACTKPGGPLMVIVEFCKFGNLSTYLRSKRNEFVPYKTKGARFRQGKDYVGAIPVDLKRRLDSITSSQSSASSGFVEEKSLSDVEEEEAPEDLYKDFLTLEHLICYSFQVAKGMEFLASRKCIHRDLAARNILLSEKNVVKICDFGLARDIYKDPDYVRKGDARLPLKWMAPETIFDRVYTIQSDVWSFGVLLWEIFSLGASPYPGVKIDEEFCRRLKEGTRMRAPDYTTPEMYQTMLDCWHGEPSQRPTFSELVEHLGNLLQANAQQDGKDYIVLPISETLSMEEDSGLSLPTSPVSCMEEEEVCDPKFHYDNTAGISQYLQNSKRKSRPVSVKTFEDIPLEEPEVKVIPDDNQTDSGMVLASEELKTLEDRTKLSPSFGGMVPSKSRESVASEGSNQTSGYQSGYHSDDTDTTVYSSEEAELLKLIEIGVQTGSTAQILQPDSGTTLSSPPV

[3] = target: Serine/threonine-protein kinase B-raf (Homo sapiens, UniProt P15056, V600E); test: Inhibition of BRAF V600E mutant (unknown origin)
Serine/threonine-protein kinase B-raf (Homo sapiens, UniProt P15056, V600E), sequence (P15056 2-766 V600E limits assumed): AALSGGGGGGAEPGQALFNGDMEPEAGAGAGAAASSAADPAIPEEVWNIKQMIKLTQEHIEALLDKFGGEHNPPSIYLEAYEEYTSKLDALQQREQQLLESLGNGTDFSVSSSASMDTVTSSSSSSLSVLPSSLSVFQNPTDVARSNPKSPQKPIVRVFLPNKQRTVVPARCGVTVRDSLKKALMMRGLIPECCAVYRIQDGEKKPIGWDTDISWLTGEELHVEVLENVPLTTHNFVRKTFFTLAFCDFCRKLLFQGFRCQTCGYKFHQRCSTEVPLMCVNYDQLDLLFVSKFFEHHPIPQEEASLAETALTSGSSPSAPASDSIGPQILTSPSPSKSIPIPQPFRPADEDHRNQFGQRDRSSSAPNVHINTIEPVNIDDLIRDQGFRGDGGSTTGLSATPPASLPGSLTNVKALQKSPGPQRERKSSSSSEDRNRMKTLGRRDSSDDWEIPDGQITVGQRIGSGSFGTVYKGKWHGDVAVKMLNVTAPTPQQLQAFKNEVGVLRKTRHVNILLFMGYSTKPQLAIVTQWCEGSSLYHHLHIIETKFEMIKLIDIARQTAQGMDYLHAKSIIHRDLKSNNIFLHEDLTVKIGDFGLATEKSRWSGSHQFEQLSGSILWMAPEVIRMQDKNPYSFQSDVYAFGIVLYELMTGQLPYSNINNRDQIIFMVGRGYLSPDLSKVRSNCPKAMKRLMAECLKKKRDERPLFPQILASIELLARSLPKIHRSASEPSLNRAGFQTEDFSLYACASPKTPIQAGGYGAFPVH

[4] = target: T1, Vascular endothelial growth factor receptor 2; test: Inhibition of VEGFR2 (unknown origin) incubated for 1 hr in presence of ATP by ELISA method
[5] = target: T1, Vascular endothelial growth factor receptor 2; test: Inhibition of VEGFR2 (unknown origin) by FRET based assay
MCF7 [6] = test: Cytotoxicity against human MCF7 cells assessed as inhibition of cell growth incubated for 48 hrs by MTT assay; assay type: functional, cell-based; settings: MCF7, 48 h
PC-3 [7] = test: Cytotoxicity against human PC-3 cells assessed as inhibition of cell growth incubated for 48 hrs by MTT assay; assay type: functional, cell-based; settings: PC-3, 48 h
HCT-116 [8] = test: Cytotoxicity against human HCT-116 cells assessed as inhibition of cell growth incubated for 48 hrs by MTT assay; assay type: functional, cell-based; settings: HCT-116, 48 h
HepG2 [9] = test: Cytotoxicity against human HepG2 cells assessed as inhibition of cell growth incubated for 48 hrs by MTT assay; assay type: functional, cell-based; settings: HepG2, 48 h
[10] = Inhibition of VEGFR (unknown origin); design: species or system Homo sapiens
[11] = target: RAF proto-oncogene serine/threonine-protein kinase (Homo sapiens, UniProt P04049); test: Inhibition of C-RAF (unknown origin)
RAF proto-oncogene serine/threonine-protein kinase, sequence (P04049 whole entry): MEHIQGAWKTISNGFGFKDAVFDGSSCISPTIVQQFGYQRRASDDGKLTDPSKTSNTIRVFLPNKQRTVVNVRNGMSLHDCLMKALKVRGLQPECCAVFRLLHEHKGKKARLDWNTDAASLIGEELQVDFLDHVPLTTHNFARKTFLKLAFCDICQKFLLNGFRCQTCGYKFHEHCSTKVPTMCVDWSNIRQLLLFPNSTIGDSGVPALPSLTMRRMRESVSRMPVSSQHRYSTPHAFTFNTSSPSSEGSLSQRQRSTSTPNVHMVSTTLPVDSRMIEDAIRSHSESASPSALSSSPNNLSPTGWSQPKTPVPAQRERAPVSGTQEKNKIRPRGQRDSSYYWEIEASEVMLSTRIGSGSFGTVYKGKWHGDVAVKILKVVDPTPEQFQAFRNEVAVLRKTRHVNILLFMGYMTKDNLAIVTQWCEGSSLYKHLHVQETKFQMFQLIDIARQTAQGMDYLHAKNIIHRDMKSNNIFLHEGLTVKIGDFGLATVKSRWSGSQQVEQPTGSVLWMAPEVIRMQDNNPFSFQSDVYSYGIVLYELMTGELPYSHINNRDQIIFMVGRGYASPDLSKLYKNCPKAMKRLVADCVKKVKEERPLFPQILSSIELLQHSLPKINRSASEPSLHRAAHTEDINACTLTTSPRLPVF

HL-60 = test: Cytotoxicity against human HL-60 cells assessed as reduction in cell growth; assay type: functional, cell-based
[12] = Cytotoxicity against human WI-38 cells assessed as reduction in cell growth; assay type: toxicity, cell-based
MCF7 [13] = test: Cytotoxicity against human MCF7 cells assessed as reduction in cell viability measured after 72 hrs by MTT assay; assay type: functional, cell-based; settings: MCF7, 72 h
[14] = target: T1, Vascular endothelial growth factor receptor 2; test: Inhibition of human recombinant VEGFR2 using biotinylated poly-GluTyr (4:1) as susbtrate measured for 1 hr by ELISA method
HCT-116 [15] = test: Cytotoxicity against human HCT-116 cells assessed as reduction in cell viability measured after 72 hrs by MTT assay; assay type: functional, cell-based; settings: HCT-116, 72 h
[16] = Cytotoxicity against African green monkey Vero cells assessed as inhibition of cell growth incubated for 24 hrs by MTT assay; assay type: toxicity, cell-based, Chlorocebus sabaeus
HepG2 [17] = test: Cytotoxicity against human HepG2 cells assessed as reduction in cell viability measured after 72 hrs by MTT assay; assay type: functional, cell-based; settings: HepG2, 72 h
A498 = test: Cytotoxicity against human A498 cells assessed as reduction in cell viability incubated for 48 hrs by MTT assay; assay type: functional, cell-based; settings: A498, 48 h
CAKI-1 = test: Cytotoxicity against human CAKI-1 cells assessed as reduction in cell growth incubated for 48 hrs by MTT assay; assay type: functional, cell-based; settings: CAKI-1, 48 h
MCF7 [18] = test: Antiproliferative actiivty against human MCF7 cells assessed as reduction in cell viability by MTT assay; assay type: functional, cell-based
[19] = target: T1, Vascular endothelial growth factor receptor 2; test: Inhibition of human VEGFR2
[20] = Antiproliferative actiivty against human WI-38 cells assessed as reduction in cell viability by MTT assay; assay type: toxicity, cell-based
HCT-116 [21] = test: Antiproliferative actiivty against human HCT-116 cells assessed as reduction in cell viability by MTT assay; assay type: functional, cell-based
[22] = target: T1, Vascular endothelial growth factor receptor 2; test: Inhibition of VEGFR2 (unknown origin) by Z'-Lyte kinase assay
HepG2 [23] = test: Antiproliferative activity against human HepG2 cells assessed as reduction in cell viability incubated for 24 hrs by MTT assay; assay type: functional, cell-based; settings: HepG2, 24 h
MCF7 [24] = test: Antiproliferative activity against human MCF7 cells assessed as reduction in cell viability incubated for 24 hrs by MTT assay; assay type: functional, cell-based; settings: MCF7, 24 h
PC-3 [25] = test: Antiproliferative activity against human PC-3 cells assessed as reduction in cell viability incubated for 24 hrs by MTT assay; assay type: functional, cell-based; settings: PC-3, 24 h
HepG2 [26] = test: Anticancer activity against human HepG2 cells assessed as reduction in cell growth incubated for 24 hrs by MTT assay; assay type: functional, cell-based; settings: HepG2, 24 h
[27] = Acute toxicity in ip dosed Swiss albino mouse assessed as lethal dose; assay type: organism-based; settings: in vivo, read-out: ALD50

Serine/threonine-protein kinase B-raf (Homo sapiens, UniProt P15056), sequence (P15056 whole entry): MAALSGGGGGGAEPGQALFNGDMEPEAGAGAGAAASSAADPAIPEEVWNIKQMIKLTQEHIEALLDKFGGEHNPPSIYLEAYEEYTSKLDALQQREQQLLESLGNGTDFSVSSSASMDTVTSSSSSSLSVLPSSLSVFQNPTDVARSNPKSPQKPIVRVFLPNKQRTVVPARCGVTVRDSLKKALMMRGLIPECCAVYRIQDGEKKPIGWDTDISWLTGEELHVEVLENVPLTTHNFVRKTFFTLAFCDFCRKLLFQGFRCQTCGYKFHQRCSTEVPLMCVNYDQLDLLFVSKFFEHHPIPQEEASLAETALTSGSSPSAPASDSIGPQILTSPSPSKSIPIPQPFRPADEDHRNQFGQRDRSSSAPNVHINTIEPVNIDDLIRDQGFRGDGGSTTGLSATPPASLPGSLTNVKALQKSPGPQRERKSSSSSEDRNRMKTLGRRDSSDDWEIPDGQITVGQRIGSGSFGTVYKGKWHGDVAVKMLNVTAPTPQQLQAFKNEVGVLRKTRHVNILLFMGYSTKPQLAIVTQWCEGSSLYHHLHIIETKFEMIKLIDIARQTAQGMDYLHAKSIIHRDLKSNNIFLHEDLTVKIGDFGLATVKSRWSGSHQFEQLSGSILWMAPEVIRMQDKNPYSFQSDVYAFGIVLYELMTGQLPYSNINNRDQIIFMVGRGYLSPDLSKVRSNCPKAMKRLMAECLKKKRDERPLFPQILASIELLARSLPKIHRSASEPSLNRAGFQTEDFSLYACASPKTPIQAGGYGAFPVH

## O=C(CSc1nc2sc3c(c2c(=O)n1-c1ccc(Cl)cc1)CCCC3)NNC(=O)Nc1ccc(Cl)c(C(F)(F)F)c1
[1]
  IC50: 0.05 µM
[2]
  IC50: 0.049 µM
[3]
  IC50: 0.063 µM

## COc1cc(-c2nc(SCC(=O)Nc3ccc(C(C)=O)cc3)[nH]c(=O)c2C#N)cc(OC)c1OC
[4]
  IC50: 199 µM

## O=C(CN1CCN(c2cc(=O)[nH]c3c(-c4ccccc4)cccc23)CC1)Nc1ccc(F)cc1
[5]
  IC50: 0.0388 µM

## O=C(NC1=NN2C(=O)/C(=C/c3ccco3)N=C2S1)c1cccs1
MCF7 [6]
  IC50: 4.36 µM
PC-3 [7]
  IC50: 8.01 µM
[2]
  IC50: 9.4 µM
HCT-116 [8]
  IC50: 5.26 µM
HepG2 [9]
  IC50: 6.8 µM

## COc1ccc(-n2c(SCC(=O)Nc3ccc(-c4nc5ccccc5[nH]4)cc3)nc3ccccc3c2=O)cc1
[3]
  IC50: > 100 µM
[10]
  IC50: 20.6 µM
[11]
  IC50: > 100 µM

## C/C(=N\NC(=S)Nc1ccccc1)c1nnn(-c2ccc(F)cc2)c1C
[2]
  IC50: 0.067 µM
HL-60
  IC50: 1.09 µM
[12]
  IC50: 56.6 µM

## CCOC(=O)/C(=N\Nc1ccc(S(=O)(=O)Nc2nc(C)cc(C)n2)cc1)C(=O)NNc1ccccc1
MCF7 [13]
  IC50: 13.8 µM
[14]
  IC50: 0.15 µM
HCT-116 [15]
  IC50: 10.1 µM
[16]
  IC50 at 24 h: 59.8 µM
HepG2 [17]
  IC50: 8.97 µM

## O=C(CSc1nc2sc3c(c2c(=O)n1-c1ccc(Cl)cc1)CCCC3)NNC(=O)Nc1cccc(C(F)(F)F)c1
[1]
  IC50: 0.071 µM
[2]
  IC50: 0.111 µM
[3]
  IC50: 0.089 µM

## CNC(=O)c1nc(Nc2ccc(NC(=O)Nc3cccc(C)c3)cc2)c2ccccc2n1
[4]
  IC50: 0.0121 µM

## Cc1ccc(/C=N/n2c(-c3cc4ccccc4[nH]3)n[nH]c2=S)cc1
A498
  IC50: 7.36 µM
CAKI-1
  IC50: 6.28 µM

## N=c1cc(N)nc2sc(NC(=O)c3cccs3)nn12
MCF7 [6]
  IC50: 8.45 µM
PC-3 [7]
  IC50: 7.76 µM
[2]
  IC50: 8.2 µM
HCT-116 [8]
  IC50: 33.1 µM
HepG2 [9]
  IC50: 4.22 µM

## O=C(c1ccccc1)n1cc(-c2nc3cc(Cl)ccc3[nH]c2=O)c(=O)[nH]1
MCF7 [18]
  IC50: 3.57 µM
[19]
  IC50: 0.144 µM
[20]
  IC50: 99.2 µM
HCT-116 [21]
  IC50: 4.28 µM

## Cc1cc(NS(=O)(=O)c2ccc(NN=C3C(=O)NNC3=O)cc2)no1
MCF7 [13]
  IC50: 14.3 µM
[14]
  IC50: 0.15 µM
HCT-116 [15]
  IC50: 7.49 µM
[16]
  IC50 at 24 h: 36.3 µM
HepG2 [17]
  IC50: 8.65 µM

## O=C1C(=O)N(CN2CCN(c3cc(=O)[nH]c4ccc(F)cc34)CC2)c2ccccc21
[22]
  IC50: 0.0638 µM

## CCn1c(SCC(=O)NNC(=O)c2ccccc2)nc2ccc([N+](=O)[O-])cc2c1=O
HepG2 [23]
  IC50: 17.2 µg/mL (≈ 40.3 µM)
MCF7 [24]
  IC50: 30.8 µg/mL (≈ 72.2 µM)
PC-3 [25]
  IC50: 26.1 µg/mL (≈ 61.1 µM)

## CCOc1ccc(Nc2nnc3c4c(cccc24)NC(=S)N3Cc2ccccc2)cc1
HepG2 [26]
  IC50: 0.22 µM
[27]
  LD50: > 800 mg/kg

## COc1ccc(/C=N/n2c(SCC(=O)c3ccc(Cl)cc3)nnc2-c2cc3ccccc3[nH]2)cc1
A498
  IC50: 2.2 µM
CAKI-1
  IC50: 0.89 µM
